Measurements from article PMC11125359 (Pharmaceuticals, 2024).
Where two headings read alike, the source gives them in different places.

Legend:
α-glucosidase = experiment: α-Glucosidase inhibition (anti-diabetic); format: biochemical; details: equal concentrations (1000 µg/mL); mean ± SE
Bcl-2 [1] = experiment: Bcl-2 ELISA in treated A549 cells; format: cell-based, human; details: DMSO control 9.83 ± 0.05
[2] = Cytotoxic activity, MTT assay, normal lung (WI-38); format: cell-based; details: human, WI-38 normal lung cells; for IC50 at 48 h: MTT, mean ± SE, read-out: Cytotoxic activity IC50, Normal Lung (WI-38)
[3] = DPPH radical-scavenging activity; details: read-out: DPPH (IC50); mean ± SE, three replicates
Experimental: In vitro biological activities
(§1) The 1,1-Diphenyl-2-picryl-hydrazyl (DPPH) radical scavenging activities were evaluated using the method described by Rahman et al. An antioxidant substance capable of donating a
(§2) hydrogen atom to a solution containing DPPH- can reduce the stable free radical, causing the solution
(§3) to change color from violet to pale yellow. The remaining DPPH- radical was quantified by
(§4) nm using a spectroscopic method. Two milliliters of a DPPH solution (100 µM) in ethanol were mixed
(§5) with 2 mL of the sample (at each concentration). The reaction mixture for each concentration was
(§6) thoroughly vortexed and then incubated in the dark at room temperature for 30 minutes. The
(§7) absorbance was then measured spectrophotometrically at 518 nm against a blank (ethanol). For the
(§8) control, 2 mL of ethanol was added instead of the sample and run simultaneously with the test.
(§9) Ascorbic acid was used at the same concentrations as a positive control. Percent inhibition of the
(§10) DPPH free radical was calculated. The median inhibitory concentration (IC 50) for each tested

[4] = Iron-reducing power (IRP); details: equal concentrations (1000 µg/mL); mean ± SE, three replicates
α-amylase = experiment: α-Amylase inhibition (anti-diabetic); format: biochemical; details: equal concentrations (1000 µg/mL); mean ± SE
[5] = molecular target: acetylcholinesterase (AChE) (Homo sapiens, UniProt P22303); experiment: biochemical; details: same concentration (1000 µg/mL); mean ± SE
[6] = test system: human colon cancer (Caco-2) cell line; experiment: cells; format: cell-based; details: for Viability %, Caco-2, 1st concentration: Conc.: 5a 13.45, 5d 12.64, 5e 12.29, 5f 11.81, 7a 12.72, 7f 11.24, DOX 11.50; for Viability %, Caco-2, 2nd concentration: Conc.: 5a 26.91, 5d 25.27, 5e 24.58, 5f 23.63, 7a 25.43, 7f 22.48, DOX 23.00; for Viability %, Caco-2, 3rd concentration: Conc.: 5a 53.81, 5d 50.55, 5e 49.15, 5f 47.26, 7a 50.86, 7f 44.96, DOX 46.00; for Viability %, Caco-2, 4th concentration: Conc.: 5a 107.63, 5d 101.09, 5e 98.31, 5f 94.51, 7a 101.72, 7f 89.93, DOX 91.99; for Viability %, Caco-2, 5th concentration: Conc.: 5a 215.26, 5d 202.19, 5e 196.61, 5f 189.03, 7a 203.44, 7f 179.85, DOX 183.99; for IC50: Homo sapiens, Caco-2, 48 h, MTT, mean ± SE, read-out: Cytotoxic activity IC50, Colon (Caco-2); for Therapeutic Index (TI), Colon (Caco-2): IC50 on normal cells (WI-38)/IC50 on Caco-2
[7] = Total antioxidant capacity (TAC), phosphomolybdenum method; details: equal concentrations (1000 µg/mL); mean ± SE, three replicates
Experimental: (§11) All in vitro biological activities were assessed in the tested compounds at equal concentrations (1000 µg/mL). All assays were carried out in triplicate.
In vitro biological activities
(§12) The total antioxidant capacity (TAC) was determined by analyzing the green phosphate/Mo5+ complex at a wavelength (λ) of 695 nm, following the procedure described by Prieto
(§13) et al. Samples (at each concentration) were mixed with a reagent solution containing 0.3 N sulfuric
(§14) acid, 28 mM sodium phosphate, and 4 mM ammonium molybdate. Methanol (80%) was used in place
(§15) of the sample for the blank. The tubes were sealed and incubated in a boiling water bath for 90
(§16) minutes. After cooling to room temperature, the absorbance was measured at 695 nm against the
(§17) blank. Ascorbic acid was used at the same concentrations as a standard. The antioxidant capacity was
(§18) expressed as mg gallic acid equivalent per gram weight.
(§19) The iron reducing power was determined as µg/mL using the method proposed by Oyaizu
(§20) In brief, 1ml of the tested sample (at each concentration) was combined with 1mL of 200mM
(§21) sodium phosphate buffer (pH 6.6) and 1mL of 1% potassium ferricyanide. The mixture was then
(§22) incubated at 50°C for 20 minutes, followed by the addition of 1mL of trichloroacetic acid (10%). After
(§23) centrifugation at 2000rpm for 10 minutes, the upper layer solution (2.5 mL) was mixed with 2.5 mL of double deionized water and 1mL of fresh ferric chloride (0.1%). The absorbance was measured at
(§24) 700nm against a blank prepared without the sample. Ascorbic acid was used at the same
(§25) concentrations as a standard. A high absorbance at 700nm indicates a higher reducing power in the
as §1, §2, §3, §4, §5, §6, §7, §8, §9, §10
(§26) The procedure for the 2,2'-azinobis-(3-ethylbenzothiazoline-6-sulfonic acid) (ABTS) assay
(§27) potassium persulfate solution (2.4 mM). The working solution was prepared by mixing the two stock
(§28) solutions in equal quantities and allowing them to react at room temperature in a dark place for 14
(§29) hours. The solution was then diluted by mixing 1 mL of ABTS solution with 60 mL of methanol to
(§30) was prepared for each assay. The tested samples (at each concentration) were allowed to react with 1
(§31) mL of the ABTS solution, and the absorbance was taken at 734 nm after 7 minutes using a
(§32) spectrophotometer. The ABTS scavenging capacities of the samples were compared with that of
(§33) ascorbic acid (at the same concentrations).

[8] = ABTS radical scavenging assay; details: equal concentrations (1000 µg/mL); mean ± SE
Experimental: as §11
In vitro biological activities
as §12, §13, §14, §15, §16, §17, §18, §19, §20, §21, §22, §23, §24, §25, §1, §2, §3, §4, §5, §6, §7, §8, §9, §10, §26, §27, §28, §29, §30, §31, §32, §33

Bcl-2 [9] = experiment: Bcl-2 ELISA in treated Caco-2 cells; format: cell-based, human; details: DMSO control 7.99 ± 0.08
caspase-3 [10] = experiment: Caspase-3 ELISA in treated Caco-2 cells; format: cell-based, human; details: DMSO control 97.06 ± 0.14
[11] = test system: proteinase enzyme (trypsin); experiment: Proteinase enzyme inhibition (anti-inflammatory); format: biochemical; details: equal concentrations (1000 µg/mL); mean ± SE
[12] = test system: human lung cancer (A549) cell line; experiment: Cytotoxic activity, MTT assay, lung (A549); details: for Viability %, A549, 1st concentration: Conc.: 5a 13.45, 5d 12.64, 5e 12.29, 5f 11.81, 7a 12.72, 7f 11.24, DOX 11.50; for Viability %, A549, 2nd concentration: Conc.: 5a 26.91, 5d 25.27, 5e 24.58, 5f 23.63, 7a 25.43, 7f 22.48, DOX 23.00; for Viability %, A549, 3rd concentration: Conc.: 5a 53.81, 5d 50.55, 5e 49.15, 5f 47.26, 7a 50.86, 7f 44.96, DOX 46.00; for Viability %, A549, 4th concentration: Conc.: 5a 107.63, 5d 101.09, 5e 98.31, 5f 94.51, 7a 101.72, 7f 89.93, DOX 91.99; for Viability %, A549, 5th concentration: Conc.: 5a 215.26, 5d 202.19, 5e 196.61, 5f 189.03, 7a 203.44, 7f 179.85, DOX 183.99; for IC50: Homo sapiens, A549, 48 h, read-out: Cytotoxic activity IC50, Lung (A549)
Experimental: It will be assayed against human lung cancer (A549) and colon (Caco-2) cell line in
comparison with normal lung (WI-38) cell line using 3-(4,5-dimethythiazol-2-yl)-2,5-diphenyl
tetrazolium bromide (MTT) assay by determining the optical density (OD) at 570 nm according to the
The cells were dispensed in a 96-well sterile microplate (3
µL of each compound or doxorubicin (positive control, in DMSO) for 48 h in a serum free medium
prior to the MTT assay. Subsequently, the media were carefully removed, and 40 µL of MTT (2.5
mg/mL) was added to each well and then incubated for an additional 4 h. Purple formazan dye
crystals were solubilized by the addition of 200 µL of DMSO. The absorbance was measured at 570 nm using a SpectraMax Paradigm Multi-Mode microplate reader. The relative cell viability was
experiments were conducted in triplicate. Percent of the cell-growth inhibition (%) and the IC 50 was
calculated using IC 50 calculation software. The concentrations used for calculating the IC 50 depend on

caspase-3 [13] = experiment: Caspase-3 ELISA in treated A549 cells; format: cell-based, human; details: DMSO control 85.92 ± 0.12
[14] = molecular target: bovine serum albumin (BSA) (Bos taurus, UniProt P02769); details: equal concentrations (1000 µg/mL); mean ± SE
[15] = Conc. as printed: 5a 53.81, 5d 50.55, 5e 49.15, 5f 47.26, 7a 50.86, 7f 44.96, DOX 46.00, read-out: Viability %, WI-38, 3rd concentration
[16] = Conc. as printed: 5a 107.63, 5d 101.09, 5e 98.31, 5f 94.51, 7a 101.72, 7f 89.93, DOX 91.99, read-out: Viability %, WI-38, 4th concentration
[17] = Conc.: 5a 13.45, 5d 12.64, 5e 12.29, 5f 11.81, 7a 12.72, 7f 11.24, DOX 11.50, read-out: Viability %, WI-38, 1st concentration
[18] = Conc.: 5a 26.91, 5d 25.27, 5e 24.58, 5f 23.63, 7a 25.43, 7f 22.48, DOX 23.00, read-out: Viability %, WI-38, 2nd concentration
[19] = Conc.: 5a 215.26, 5d 202.19, 5e 196.61, 5f 189.03, 7a 203.44, 7f 179.85, DOX 183.99, read-out: Viability %, WI-38, 5th concentration

acetylcholinesterase (AChE), sequence (P22303 32-614, species assumed): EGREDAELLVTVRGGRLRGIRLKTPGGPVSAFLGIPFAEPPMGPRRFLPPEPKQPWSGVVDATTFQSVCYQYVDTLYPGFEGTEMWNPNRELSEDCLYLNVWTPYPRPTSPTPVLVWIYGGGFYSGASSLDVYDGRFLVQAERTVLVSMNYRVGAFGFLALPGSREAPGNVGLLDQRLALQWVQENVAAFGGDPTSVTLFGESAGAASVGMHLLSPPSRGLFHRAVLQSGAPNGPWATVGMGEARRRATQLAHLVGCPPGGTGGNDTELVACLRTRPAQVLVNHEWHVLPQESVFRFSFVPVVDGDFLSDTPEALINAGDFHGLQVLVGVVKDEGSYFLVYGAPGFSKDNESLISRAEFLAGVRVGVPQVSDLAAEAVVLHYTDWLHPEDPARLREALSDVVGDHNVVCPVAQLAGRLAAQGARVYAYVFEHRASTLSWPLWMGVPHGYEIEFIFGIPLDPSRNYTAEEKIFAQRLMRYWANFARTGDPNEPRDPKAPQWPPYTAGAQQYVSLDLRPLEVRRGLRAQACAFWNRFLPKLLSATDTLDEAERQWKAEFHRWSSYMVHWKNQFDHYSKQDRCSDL
bovine serum albumin (BSA), sequence (P02769 25-607): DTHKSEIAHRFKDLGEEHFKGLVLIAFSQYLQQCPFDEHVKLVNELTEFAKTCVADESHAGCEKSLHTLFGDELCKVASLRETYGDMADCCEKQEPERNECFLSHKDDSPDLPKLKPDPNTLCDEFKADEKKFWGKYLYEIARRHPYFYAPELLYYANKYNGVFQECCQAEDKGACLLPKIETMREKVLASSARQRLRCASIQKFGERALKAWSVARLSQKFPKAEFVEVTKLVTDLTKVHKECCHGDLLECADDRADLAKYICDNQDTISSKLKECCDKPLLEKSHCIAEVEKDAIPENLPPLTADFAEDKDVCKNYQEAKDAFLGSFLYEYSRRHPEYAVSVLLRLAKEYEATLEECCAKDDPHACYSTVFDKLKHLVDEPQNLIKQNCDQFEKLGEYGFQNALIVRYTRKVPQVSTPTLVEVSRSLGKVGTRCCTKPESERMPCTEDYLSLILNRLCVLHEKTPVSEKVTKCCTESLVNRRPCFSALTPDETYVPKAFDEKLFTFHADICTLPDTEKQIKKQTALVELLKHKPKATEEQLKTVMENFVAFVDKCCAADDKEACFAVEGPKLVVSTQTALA

Row | Structure (SMILES) | Inhibition (%) α-Glucosidase (α-glucosidase) | Bcl-2 level, Lung (A549) (Bcl-2 [1]) | viability at 48 h [2, 15] | viability at 48 h [2, 16] | viability at 48 h [2, 17] | viability at 48 h [2, 18] | viability at 48 h [2, 19] | IC50 at 48 h [2] | IC50 [3] | Iron-Reducing Power (IRP) [4] | Inhibition (%) α-Amylase (α-amylase) | inhibition at 1000 µg/mL [5] | Viability %, Caco-2, 1st concentration [6] | Viability %, Caco-2, 2nd concentration [6] | Viability %, Caco-2, 3rd concentration [6] | Viability %, Caco-2, 4th concentration [6] | Viability %, Caco-2, 5th concentration [6] | IC50 [6] | Therapeutic Index (TI), Colon (Caco-2) [6] | Total Antioxidant Capacity (TAC) [7] | other results
1 | O=C(Nc1ccccc1)c1c(Nc2ccccc2)n[nH]c1N=Cc1ccc(N2CCCCC2)cc1 [5a] | 26.87 ± 0.05% | 6.55 ± 0.03 ng/mL | 69.5% | 54.2% | 81.4% | 75.5% | 38.3% | 442 ± 8.8 µM | 26.43 ± 0.01 µM | 34.27 ± 0.07 µg/mL | 31.24 ± 0.05% | 42.05 ± 0.03% | 82.93% | 74.41% | 55.38% | 33.22% | 25.84% | 60.29 ± 0.14 µM | 7.32 | 52.25 ± 0.19 mg Gallic Acid/g | ABTS (%) inhibition [8]: 75.46 ± 0.05%; Bcl-2 level, Colon (Caco-2) (Bcl-2 [9]): 5.33 ± 0.05 ng/mL; Caspase-3 level, Colon (Caco-2) (caspase-3 [10]): 208.68 ± 0.31 pg/mL; Inhibition (%) Proteinase [11]: 23.33 ± 0.03%; Viability %, A549, 1st concentration [12]: 97.46%; Viability %, A549, 2nd concentration [12]: 87.31%; Viability %, A549, 3rd concentration [12]: 60.91%; Viability %, A549, 4th concentration [12]: 46.48%; Viability %, A549, 5th concentration [12]: 20.20%; IC50 [12]: 68.84 ± 0.14 µM; Caspase-3 level, Lung (A549) (caspase-3 [13]): 184.74 ± 0.26 pg/mL; Inhibition (%) Protein Denaturation [14]: 26.83 ± 0.03%
2 | Cc1c(C=Nc2[nH]nc(Nc3ccccc3)c2C(=O)Nc2ccccc2)c(=O)n(-c2ccccc2)n1C [7a] | 26.91 ± 0.05% | 2.62 ± 0.01 ng/mL | 82.7% | 76.8% | 98.7% | 90.7% | 62.7% | 736 ± 7.95 µM | 24.94 ± 0.01 µM | 34.33 ± 0.07 µg/mL | 31.30 ± 0.05% | 42.12 ± 0.03% | 70.21% | 50.65% | 40.04% | 26.27% | 22.93% | 42.42 ± 0.18 µM | 17.35 | 52.34 ± 0.19 mg Gallic Acid/g | ABTS (%) inhibition [8]: 75.59 ± 0.05%; Bcl-2 level, Colon (Caco-2) (Bcl-2 [9]): 2.13 ± 0.02 ng/mL; Caspase-3 level, Colon (Caco-2) (caspase-3 [10]): 363.98 ± 0.54 pg/mL; Inhibition (%) Proteinase [11]: 23.37 ± 0.03%; Viability %, A549, 1st concentration [12]: 90.96%; Viability %, A549, 2nd concentration [12]: 79.91%; Viability %, A549, 3rd concentration [12]: 48.51%; Viability %, A549, 4th concentration [12]: 37.08%; Viability %, A549, 5th concentration [12]: 18.60%; IC50 [12]: 49.4 ± 0.18 µM; Caspase-3 level, Lung (A549) (caspase-3 [13]): 322.21 ± 0.45 pg/mL; Inhibition (%) Protein Denaturation [14]: 26.87 ± 0.03%
3 | COc1ccc(Nc2n[nH]c(N=Cc3c(C)n(C)n(-c4ccccc4)c3=O)c2C(=O)Nc2ccc(Cl)cc2)cc1 [7f] | 27.79 ± 0.05% | 3.45 ± 0.02 ng/mL | 79.3% | 73.3% | 95.2% | 87.2% | 59.2% | 543 ± 8.52 µM | 21.37 ± 0.01 µM | 35.45 ± 0.07 µg/mL | 32.31 ± 0.05% | 62.11 ± 0.04% | 81.68% | 73.16% | 54.13% | 31.97% | 24.59% | 49.01 ± 0.24 µM | 11.06 | 54.04 ± 0.20 mg Gallic Acid/g | Inhibition (%) Acetylcholinesterase [5]: 62.00 ± 0.04%; ABTS (%) inhibition [8]: 78.05 ± 0.05%; Bcl-2 level, Colon (Caco-2) (Bcl-2 [9]): 2.80 ± 0.03 ng/mL; Caspase-3 level, Colon (Caco-2) (caspase-3 [10]): 276.62 ± 0.41 pg/mL; Inhibition (%) Proteinase [11]: 24.13 ± 0.03%; Viability %, A549, 1st concentration [12]: 96.21%; Viability %, A549, 2nd concentration [12]: 86.06%; Viability %, A549, 3rd concentration [12]: 59.66%; Viability %, A549, 4th concentration [12]: 45.23%; Viability %, A549, 5th concentration [12]: 18.95%; IC50 [12]: 55.74 ± 0.24 µM; Caspase-3 level, Lung (A549) (caspase-3 [13]): 244.88 ± 0.34 pg/mL; Inhibition (%) Protein Denaturation [14]: 27.75 ± 0.03%
